The subject of test [1] is Pasteurella multocida 17E. Put plainly: broth-dilution microtiter MIC. The class given is cell-based. The settings on record: bovine isolate. The protocol: (§1) The MIC's in Table I were determined by standard agar-dilution assays. The MIC's in Table II were obtained using a conventional broth-dilution microtiter test.
The next test relates to Staphylococcus aureus. Nature of the test: broth-dilution microtiter MIC. The class given is cell-based. The protocol:
as §1

The subject of test [2] is Pasteurella multocida 60A. Nature of the test: broth-dilution microtiter MIC. The following applies: avian isolate. In kind it is cell-based. Here is the method: as §1
Another test relates to Streptococcus sp. 80. Nature of the test: broth-dilution microtiter MIC. In kind it is cell-based. Here is the method:
as §1

The test system of test [3] is Mycoplasma hyopneumonia S-5972. Put plainly: broth-dilution microtiter MIC. The settings on record: S5972. The class given is cell-based. Here is the method: as §1
The test system of test [4] is Haemophilus influenzae C.L. Put plainly: agar-dilution MIC. The class given is cell-based. The settings on record: ampicillin-sensitive strain. The protocol: as §1
In test [5] the test system is Staphylococcus aureus X400. Nature of the test: agar-dilution MIC. The class given is cell-based. The following applies: Staphylococcus aureus X400, methicillin-resistant strain. The protocol: as §1
The subject of the next test is Eschericia coli TEM. Nature of the test: agar-dilution MIC. In kind it is cell-based. The protocol: as §1
Test [6] concerns Staphylococcus aureus X1.1. Nature of the test: agar-dilution MIC. In kind it is cell-based. The protocol: as §1
For test [7], the system named is Staphylococcus epidermidis EPI1. Put plainly: agar-dilution MIC. In kind it is cell-based. The protocol:
as §1

Test [8] has as its system Streptococcus pneumoniae Park I. Nature of the test: agar-dilution MIC. In kind it is cell-based. The protocol:
as §1

The test system of test [9] is Staphylococcus aureus S13E. Nature of the test: agar-dilution MIC. In kind it is cell-based. The protocol: as §1
The subject of test [10] is Staphylococcus epidermidis EPI2. Put plainly: agar-dilution MIC. The class given is cell-based. Here is the method: as §1
In test [11] the test system is Streptococcus pneumoniae Group D 9960. Nature of the test: agar-dilution MIC. In kind it is cell-based. The following applies: GROUPD9960. The protocol:
as §1

The test system of test [12] is Haemophilus influenzae 76. Nature of the test: agar-dilution MIC. In kind it is cell-based. The following applies: Haemophilus influenzae 76, ampicillin-resistant strain. The protocol:
as §1

Test [13] deals with Klebsiella pneumoniae X26. Put plainly: agar-dilution MIC. In kind it is cell-based. The protocol:
as §1

For test [14], the system named is Streptococcus pyogenes C203. Nature of the test: agar-dilution MIC. In kind it is cell-based. Here is the method: as §1
The test system of test [15] is Staphylococcus aureus V41. Nature of the test: agar-dilution MIC. In kind it is cell-based. The settings on record: Staphylococcus aureus V41, penicillin-resistant strain. The protocol: as §1
For test [16], the system named is Streptococcus pneumoniae Group D X66. Nature of the test: agar-dilution MIC. The class given is cell-based. The protocol:
as §1

In the next test the test system is Mycoplasma gallisepticum. Put plainly: antimycoplasmal activity in experimentally infected chicks. In kind it is in vivo. The following applies: gavage, 0.5 g/gal × 5, 21 days after infection; for Number with Antibodies / Number Tested: antibodies to M. gallisepticum; for Number with Antibodies / Number Tested / Number with Air-Sac Lesions / Number Treated: infected control 10/10, uninfected control 0/10; for Mortality: infected control 2/7. The protocol:
In these tests infections were induced in chicks by injecting 0.2 ml of a broth culture of M. gallisepticum into the abdominal air sac of one- to three-day-old chicks. The compounds were administered by gavage at a dose equivalent to 0.5 g/gal two times on the day of infection, two times on the day following infection and one time on the third day. Twenty-one days after infection the chicks were weighed, a blood sample was taken, and the chicks were sacrificed. The presence or absence of air-sac lesions was recorded.

For test [17] the following is noted: macrocin vs tylosin, lactenocin vs desmycosin; cited from earlier work.

Each structure is given as a SMILES string. Values after ≈ are worked out from the molar mass of the structure shown.

As for `CCCC(=O)OC1C(C)OC(OC2C(C)OC(OC3C(CC=O)CC(C)C(=O)C=CC(C)=CC(COC4OC(C)C(O)C(O)C4OC)C(CC)OC(=O)CC(OC(C)=O)C3C)C(O)C2N(C)C)CC1(C)O` (stereo not shown) [3-Acetyl-4"-(n-Butyryl)-macrocin, 3-O-Acetyl-4"-O-(n-Butyryl)macrocin], the MIC in test [1] is 50 mg/L (≈ 49.3 µM); in the test on Staphylococcus aureus, 3.12 mg/L (≈ 3.08 µM); in test [2] it was 50 mg/L (≈ 49.3 µM); against Streptococcus sp. 80 it was 0.39 mg/L (≈ 0.385 µM); in [3] it was 0.048 mg/L (≈ 0.0473 µM); in test [4], 32 mg/L (≈ 31.6 µM). In addition, the MIC is 2 mg/L (≈ 1.97 µM) in test [5]; more than 128 mg/L in the test with Eschericia coli TEM; 1 mg/L (≈ 0.986 µM) in [6]; 1 mg/L (≈ 0.986 µM) in [7]; 0.25 mg/L (≈ 0.246 µM) in test [8]; 2 mg/L (≈ 1.97 µM) in test [9]. For the same compound, the MIC worked out at 2 mg/L (≈ 1.97 µM) in [10]; 2 mg/L (≈ 1.97 µM) in [11]; 32 mg/L (≈ 31.6 µM) in test [12]; 64 mg/L (≈ 63.1 µM) in test [13]; 0.5 mg/L (≈ 0.493 µM) in test [14]; 1 mg/L (≈ 0.986 µM) in test [15]. This compound also had an MIC in test [16] of 2 mg/L (≈ 1.97 µM). Moreover, in the test with Mycoplasma gallisepticum, the “Number with Antibodies / Number Tested” value is reported as 7/9. The Mortality in the test with Mycoplasma gallisepticum is reported as 1/7. In the test on Mycoplasma gallisepticum, the “Number with Air-Sac Lesions / Number Treated” value is recorded as 7/10.

In the case of `CCC1OC(=O)CC(OC(C)=O)C(C)C(OC2OC(C)C(OC3CC(C)(O)C(OC(=O)CC(C)C)C(C)O3)C(N(C)C)C2O)C(CC=O)CC(C)C(=O)C=CC(C)=CC1COC1OC(C)C(O)C(O)C1OC` (stereo not shown) [3-Acetyl-4"-Isovaleryl-macrocin, 3-O-acetyl-4"-O-isovalerylmacrocin], the MIC is 50 mg/L (≈ 48.6 µM) in [1]; 1.56 mg/L (≈ 1.52 µM) with Staphylococcus aureus; more than 50 mg/L in [2]; 0.39 mg/L (≈ 0.379 µM) against Streptococcus sp. 80; 0.048 mg/L (≈ 0.0467 µM) in [3]; 32 mg/L (≈ 31.1 µM) in [4]. For the same compound, the MIC in test [5] was 2 mg/L (≈ 1.95 µM); with Eschericia coli TEM it was 128 mg/L (≈ 124 µM); in test [6] it was 0.5 mg/L (≈ 0.486 µM); in test [7], 0.5 mg/L (≈ 0.486 µM); in test [8], 0.5 mg/L (≈ 0.486 µM); in [9] it was 1 mg/L (≈ 0.973 µM). The MIC in test [10] is 2 mg/L (≈ 1.95 µM); in test [11] it was 2 mg/L (≈ 1.95 µM); in test [12] it was 16 mg/L (≈ 15.6 µM); in [13] it was 64 mg/L (≈ 62.2 µM); in test [14] it was 0.25 mg/L (≈ 0.243 µM); in test [15], 1 mg/L (≈ 0.973 µM). Besides, in test [16], the MIC worked out at 2 mg/L (≈ 1.95 µM). Moreover, the “Number with Antibodies / Number Tested” value with Mycoplasma gallisepticum was 10/10. Moreover, the Mortality in the test with Mycoplasma gallisepticum is reported as 0/10. The “Number with Air-Sac Lesions / Number Treated” value in the test on Mycoplasma gallisepticum is 1/10.

For the compound `CCC1OC(=O)CC(OC(C)=O)C(C)C(OC2OC(C)C(O)C(N(C)C)C2O)C(CC=O)CC(C)C(=O)C=CC(C)=CC1COC1OC(C)C(O)C(O)C1OC` (stereo not shown) [3-Acetyl-lactenocin, 3-O-Acetyllactenocin], the MIC in test [1] was determined as 12.5 mg/L (≈ 15.6 µM); with Staphylococcus aureus it was 3.12 mg/L (≈ 3.9 µM); in test [2], 25 mg/L (≈ 31.3 µM); against Streptococcus sp. 80, 1.56 mg/L (≈ 1.95 µM); in test [4] it was 16 mg/L (≈ 20 µM); in test [5], 4 mg/L (≈ 5 µM). For the same compound, the MIC in the test with Eschericia coli TEM worked out at 64 mg/L (≈ 80 µM); in test [6] it was 1 mg/L (≈ 1.25 µM); in [7], 1 mg/L (≈ 1.25 µM); in [8], 0.5 mg/L (≈ 0.625 µM); in [9], 2 mg/L (≈ 2.5 µM); in test [10], 4 mg/L (≈ 5 µM). The MIC came to 8 mg/L (≈ 10 µM) in test [11]; 8 mg/L (≈ 10 µM) in test [12]; 32 mg/L (≈ 40 µM) in test [13]; 0.25 mg/L (≈ 0.313 µM) in test [14]; 2 mg/L (≈ 2.5 µM) in [15]; 8 mg/L (≈ 10 µM) in test [16].

For the compound `CCC1OC(=O)CC(OC(C)=O)C(C)C(OC2OC(C)C(OC3CC(C)(O)C(O)C(C)O3)C(N(C)C)C2O)C(CC=O)CC(C)C(=O)C=CC(C)=CC1COC1OC(C)C(O)C(O)C1OC` (stereo not shown) [3-Acetyl-macrocin, 3-O-Acetylmacrocin], the MIC in test [1] is 50 mg/L (≈ 53 µM); in the test on Staphylococcus aureus, 1.56 mg/L (≈ 1.65 µM); in test [2] it was more than 50 mg/L; against Streptococcus sp. 80 it was 1.56 mg/L (≈ 1.65 µM); in test [4], 32 mg/L (≈ 33.9 µM); in [5], 2 mg/L (≈ 2.12 µM). The MIC stood at 64 mg/L (≈ 67.8 µM) with Eschericia coli TEM; 0.5 mg/L (≈ 0.53 µM) in test [6]; 0.5 mg/L (≈ 0.53 µM) in [7]; 0.5 mg/L (≈ 0.53 µM) in test [8]; 1 mg/L (≈ 1.06 µM) in test [9]; 2 mg/L (≈ 2.12 µM) in [10]. The MIC in test [11] turned out to be 2 mg/L (≈ 2.12 µM); in test [12] it was 16 mg/L (≈ 16.9 µM); in [13], 64 mg/L (≈ 67.8 µM); in test [14], 0.25 mg/L (≈ 0.265 µM); in test [15], 1 mg/L (≈ 1.06 µM); in [16] it was 2 mg/L (≈ 2.12 µM).

For the compound `CCC1OC(=O)CC(O)C(C)C(OC2OC(C)C(O)C(N(C)C)C2O)C(CC=O)CC(C)C(=O)C=CC(C)=CC1COC1OC(C)C(O)C(O)C1OC` (stereo not shown) [lactenocin], the “antibiotic activity relative to tylosin / desmycosin” value in [17] was “less than that of tylosin and desmycosin, respectively”.

In the case of `CCC1OC(=O)CC(O)C(C)C(OC2OC(C)C(OC3CC(C)(O)C(O)C(C)O3)C(N(C)C)C2O)C(CC=O)CC(C)C(=O)C=CC(C)=CC1COC1OC(C)C(O)C(O)C1OC` (stereo not shown) [macrocin], the “antibiotic activity relative to tylosin / desmycosin” value in test [17] is listed as “less than that of tylosin”.

(Values after patent US4656258A, “Macrocin derivatives” (Eli Lilly and Company, priority 1985, dated 1987).)
